This note sets out measurements from PubChem BioAssay AID256 (DTP/NCI, 2004).

Several values for one entry are separate records, joined by “and”; a condition that tells them apart may be missing. Equal values may be shown once. Inconclusive results and toxic doses are left out.

The test system of this assay is CD2F1 mice, L1210 leukemia ip, survival T/C. In words: NCI In Vivo Anticancer Drug Screen. Data for tumor model L1210 Leukemia (intraperitoneal) in CD2F1 (CDF1) mice. The note with it: higher = longer survival. The essentials: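 In this screen, transplantable tumors were grown in mice given either the compound or its vehicle. Results were expressed as the treated measurement relative to the control measurement.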

Where [1] appears, read: endpoint: mean survival time, dose: 100.0 mg/kg/injection, schedule: Q04DX003 (ip), vehicle: saline.
Where [2] appears, read: endpoint: mean survival time, dose: 200.0 mg/kg/injection, schedule: Q04DX003 (ip), vehicle: saline.
The mark [3] stands for this setting: endpoint: mean survival time, dose: 200.0 mg/kg/injection, schedule: Q01DX001 (ip), vehicle: saline.
Setting [4] is: endpoint: mean survival time, dose: 25.0 mg/kg/injection, schedule: Q04DX002 (ip), vehicle: saline with Tween-80.
[5] abbreviates: endpoint: mean survival time, dose: 100.0 mg/kg/injection, schedule: Q04DX003 (ip), vehicle: saline with Tween-80.
[6] abbreviates: endpoint: mean survival time, dose: 200.0 mg/kg/injection, schedule: Q04DX003 (ip), vehicle: saline with Tween-80.
[7] abbreviates: endpoint: mean survival time, dose: 400.0 mg/kg/injection, schedule: Q04DX003 (ip), vehicle: saline with Tween-80.
[8] abbreviates: endpoint: mean survival time, dose: 100.0 mg/kg/injection, schedule: Q01DX009 (ip), vehicle: saline with Tween-80.
Setting [9] is: endpoint: mean survival time, dose: 200.0 mg/kg/injection, schedule: Q01DX009 (ip), vehicle: saline with Tween-80.
Where [10] appears, read: endpoint: mean survival time, dose: 400.0 mg/kg/injection, schedule: Q01DX009 (ip), vehicle: saline with Tween-80.

On to `CCN1CC1` (tested in a mixture with another compound), for which the T/C was 93 % of control (endpoint: mean survival time, dose: 1.17 mg/kg/injection, schedule: Q01DX009 (ip), vehicle: Klucel (hydroxypropylcellulose) (HPC)); 92 % of control (endpoint: mean survival time, dose: 1.56 mg/kg/injection, schedule: Q04DX003 (ip), vehicle: other); 102 % of control (endpoint: mean survival time, dose: 2.34 mg/kg/injection, schedule: Q01DX009 (ip), vehicle: Klucel (hydroxypropylcellulose) (HPC)); 101 % of control (endpoint: mean survival time, dose: 3.12 mg/kg/injection, schedule: Q04DX003 (ip), vehicle: other); 86 % of control (endpoint: mean survival time, dose: 4.68 mg/kg/injection, schedule: Q01DX009 (ip), vehicle: Klucel (hydroxypropylcellulose) (HPC)); 91 % of control (endpoint: mean survival time, dose: 6.25 mg/kg/injection, schedule: Q04DX003 (ip), vehicle: other). Also, the T/C reads like this: (endpoint: mean survival time, dose: 9.37 mg/kg/injection, schedule: Q04DX003 (ip), vehicle: Klucel (hydroxypropylcellulose) (HPC)) 96 % of control and 98 % of control; (endpoint: mean survival time, dose: 14.2 mg/kg/injection, schedule: Q04DX003 (ip), vehicle: Klucel (hydroxypropylcellulose) (HPC)) 86 % of control and 94 % of control; (endpoint: mean survival time, dose: 21.3 mg/kg/injection, schedule: Q04DX003 (ip), vehicle: Klucel (hydroxypropylcellulose) (HPC)) 103 % of control.
Consider `Ic1ncnc2c1ncn2C1CCCO1` (stereo not drawn), for which the T/C (endpoint: mean survival time, dose: 50.0 mg/kg/injection, schedule: Q04DX003 (ip), vehicle: saline) is 96 % of control; the T/C under setting [1] is 94 % of control; the T/C under setting [2] is 94 % of control.
For the compound `O=C(COc1cc(Cl)c(Cl)cc1Cl)OCCOc1cc(Cl)c(Cl)cc1Cl`, the T/C is 93 % of control (endpoint: mean survival time, dose: 15.0 mg/kg/injection, schedule: Q04DX003 (ip), vehicle: saline); 89 % of control (endpoint: mean survival time, dose: 30.0 mg/kg/injection, schedule: Q04DX003 (ip), vehicle: saline); 86 % of control under setting [3].
As for `Cc1cc(Nc2ccccc2)nc(C)n1`, the T/C (endpoint: mean survival time, dose: 12.5 mg/kg/injection, schedule: Q04DX002 (ip), vehicle: saline with Tween-80) is 111 % of control and the T/C under setting [4] is 114 % of control.
Turning to `Nc1ccc(CSc2ccccc2)cc1F`, the T/C is, setting by setting: under setting [5], 93 % of control; under setting [6], 92 % of control; under setting [7], 108 % of control.
Turning to `CSc1ncnc2c1c(C#N)cn2C1OC(CO)C(O)C1O` (stereo not drawn), the T/C runs as follows: (endpoint: mean survival time, dose: 32.0 mg/kg/injection, schedule: Q01DX009 (ip), vehicle: saline) 124 % of control; (endpoint: mean survival time, dose: 53.0 mg/kg/injection, schedule: Q01DX009 (ip), vehicle: saline) 87 % of control.
Turning to `N#CCSc1ncnc2nc[nH]c12`, the T/C is 95 % of control and 107 % of control (endpoint: mean survival time, dose: 15.0 mg/kg/injection, schedule: Q01DX009 (ip), vehicle: saline); 110 % of control and 112 % of control (endpoint: mean survival time, dose: 30.0 mg/kg/injection, schedule: Q01DX009 (ip), vehicle: saline); 110 % of control (endpoint: mean survival time, dose: 60.0 mg/kg/injection, schedule: Q01DX009 (ip), vehicle: saline); 100 % of control (endpoint: median survival time, dose: 30.0 mg/kg/injection, schedule: Q01DX009 (ip), vehicle: saline); 122 % of control (endpoint: median survival time, dose: 60.0 mg/kg/injection, schedule: Q01DX009 (ip), vehicle: saline).
Turning to `Nc1c([N+](=O)[O-])cncc1[N+](=O)[O-]`, the T/C (endpoint: mean survival time, dose: 6.25 mg/kg/injection, schedule: Q01DX009 (ip), vehicle: saline sonified) is 102 % of control; the T/C (endpoint: mean survival time, dose: 6.25 mg/kg/injection, schedule: Q04DX003 (ip), vehicle: saline with Tween-80) is 98 % of control; the T/C (endpoint: mean survival time, dose: 12.5 mg/kg/injection, schedule: Q01DX009 (ip), vehicle: saline sonified) is 98 % of control; the T/C (endpoint: mean survival time, dose: 12.5 mg/kg/injection, schedule: Q04DX003 (ip), vehicle: saline with Tween-80) is 102 % of control; the T/C (endpoint: mean survival time, dose: 25.0 mg/kg/injection, schedule: Q01DX009 (ip), vehicle: saline sonified) is 98 % of control; the T/C (endpoint: mean survival time, dose: 25.0 mg/kg/injection, schedule: Q04DX003 (ip), vehicle: saline with Tween-80) was 102 % of control.
Turning to `CC1(C)C2C(Br)C3OC(=O)C(C2C(=O)O)C31` (stereo not drawn), the T/C reads like this: under setting [8], 96 % of control; under setting [5], 91 % of control; under setting [9], 96 % of control; under setting [6], 96 % of control; under setting [10], 93 % of control; under setting [7], 91 % of control.
As to `CNN(C)N=Nc1ccc(C(N)=O)cc1`, the T/C by setting is: (endpoint: mean survival time, dose: 19.75 mg/kg/injection, schedule: Q01DX009 (ip), vehicle: Klucel (hydroxypropylcellulose) (HPC)) 110 % of control; (endpoint: mean survival time, dose: 39.5 mg/kg/injection, schedule: Q01DX009 (ip), vehicle: Klucel (hydroxypropylcellulose) (HPC)) 118 % of control; (endpoint: mean survival time, dose: 79.0 mg/kg/injection, schedule: Q01DX009 (ip), vehicle: Klucel (hydroxypropylcellulose) (HPC)) 93 % of control.
Take `COC(=O)C(O)c1ccc2c(c1)OCO2` (stereo not drawn): the T/C under setting [8] is 97 % of control, the T/C under setting [9] was 90 % of control and the T/C under setting [10] was 90 % of control.
For `CC(C)(CO)Nc1ccc([N+](=O)[O-])cc1`, the T/C was 104 % of control (endpoint: mean survival time, dose: 100.0 mg/kg/injection, schedule: Q01DX001 (ip), vehicle: saline with Tween-80); 106 % of control (endpoint: mean survival time, dose: 200.0 mg/kg/injection, schedule: Q01DX001 (ip), vehicle: saline with Tween-80); 107 % of control (endpoint: mean survival time, dose: 400.0 mg/kg/injection, schedule: Q01DX001 (ip), vehicle: saline with Tween-80).
For `C/C(=N\O)c1ccc2ccc3ccccc3c2c1`, the T/C (endpoint: mean survival time, dose: 100.0 mg/kg/injection, schedule: Q01DX001 (ip), vehicle: saline) was 100 % of control; the T/C under setting [1] was 102 % of control; the T/C under setting [3] was 95 % of control; the T/C under setting [2] was 100 % of control; the T/C (endpoint: mean survival time, dose: 400.0 mg/kg/injection, schedule: Q01DX001 (ip), vehicle: saline) was 100 % of control; the T/C (endpoint: mean survival time, dose: 400.0 mg/kg/injection, schedule: Q04DX003 (ip), vehicle: saline) is 97 % of control.
As for `NC1CCCCC1N.O=C1C=CC(=C(c2ccc(O)cc2)c2ccccc2S(=O)(=O)[O-])C=C1.O=[N+]([O-])[O-].[Pt+4]`, the T/C is 170 % of control (endpoint: median survival time, dose: 1.56 mg/kg/injection, schedule: Q04DX003 (ip), vehicle: saline); 361 % of control (endpoint: median survival time, dose: 3.12 mg/kg/injection, schedule: Q04DX003 (ip), vehicle: saline with Tween-80); 353 % of control (endpoint: median survival time, dose: 3.12 mg/kg/injection, schedule: Q04DX003 (ip), vehicle: saline); 361 % of control (endpoint: median survival time, dose: 6.25 mg/kg/injection, schedule: Q04DX003 (ip), vehicle: saline with Tween-80); 243 % of control (endpoint: median survival time, dose: 6.25 mg/kg/injection, schedule: Q04DX003 (ip), vehicle: saline); 365 % of control (endpoint: median survival time, dose: 12.5 mg/kg/injection, schedule: Q04DX003 (ip), vehicle: saline).
`CCCCCCCCCCCCOP(OCC)OCCCCCCCCCCCC`: the T/C is, setting by setting: under setting [4], 104 % of control; (endpoint: mean survival time, dose: 50.0 mg/kg/injection, schedule: Q04DX002 (ip), vehicle: saline with Tween-80) 101 % of control; (endpoint: mean survival time, dose: 100.0 mg/kg/injection, schedule: Q04DX002 (ip), vehicle: saline with Tween-80) 96 % of control and 101 % of control.
